Reference: patent US12370202B2, “Methods and compositions for inhibiting the NLRP3 inflammasome and/or LON protease” (TRITERPENOID THERAPEUTICS, INC., priority 2019, dated 2025)

Columns and labels:
5T33MM cells = assay: MM cell proliferation (confluence), IncuCyte imaging; format: cell-based, murine; conditions: 50 nM TTX01 or 7.5 nM IXZ alone, 72 hours
Procedure: (§1) FIG. 2 is a bar graph. CDDO-2P-Im inhibits proliferation of multiple myeloma cell line in vitro. 5T33MM, RPMI8226, and ARH77 cells were seeded in 96-well plates and incubated with CDDO-2P-Im (50 nM-150 nM). Confluence (cell proliferation) was measured using IncuCyte imaging after 72 hours. *p<0.01 compared to control.
(§2) FIG. 3 is a bar graph. […] Shown here are results for 5T33MM (50 nM TTX01/7.5 nM IXZ); RPMI8226 (100 nM TTX01/7.5 nM IXZ); and ARH77 (150 nM TTX01/10 nM IXZ). Confluence (cell proliferation) was measured using IncuCyte imaging after 72 hours.
(§3) To examine tumor-intrinsic effects of CDDO-2P-IM in the 5T33MM cell line and in human MM cells, conducted a series of in vitro studies was conducted. For these experiments, 96-well plates were first coated in poly-L-ornithine before cells were seeded (in triplicate), including the murine 5T33MM and the human RPMI8226, and ARH77 cell lines (15,000 cells per well). Cells were incubated in IncuCyte™ Live-Cell Analysis System for 72 hours (images were taken every 4 hours). To define dose-dependent effect of CDDO-2P-IM, cells were exposed to concentrations ranging from 50 nM to 150 nM. To examine potential synergy of CDDO-2P-IM with IXZ, MM cells were exposed to IXZ (7 nM-10 nM) either alone or in combination with CDDO-2P-IM.

ARH77 cells = assay: as above; format: cell-based, human; conditions: 150 nM TTX01 or 10 nM IXZ alone, 72 hours
Procedure: as §1, §2, §3

RPMI8226 cells = assay: as above; format: cell-based, human; conditions: 100 nM TTX01 or 7.5 nM IXZ alone, 72 hours
Procedure: as §1, §2, §3

NLRP3 inflammasome = NLRP3 inflammasome activation in LPS-primed BMDM, IL-1β ELISA; format: cell-based, mouse; conditions: for IL-1β production by NLRP3 inflammasome activation: LPS primed BMDM, different doses (30-1000 nM) 15 min before ATP (5 mM) 45 min, ELISA
Procedure: FIG. 4A depicts an experimental design and FIG. 4B is a bar graph. Ixazomib (IXZ) potentiation of NLRP3 inflammasome activation inhibited by CDDO-2P-Im. Bone marrow derived macrophages (BMDM) were treated with Ixazomib (IXZ) and LPS (100 ng/ml) for 20 hours. Primed-BMDM were treated with CDDO-2P-Im (100 nM) for 15 min, followed by stimulation of ATP (5 mM) for 45 min. Supernatant were analyzed by ELISA for IL-1β release.
FIG. 6 is a set of bar graphs. CDDO-Im, CDDO-2P-Im (right panel), and CDDO-3P-Im (left panel) inhibit IL-1β production by NLRP3 inflammasome activation. LPS primed-BMDM were treated with different doses of CDDO-Im, CDDO-2P-Im, or CDDO-3P-Im for 15 min before ATP (5 mM) was added for 45 min. Supernatant were analyzed by ELISA for IL-1β.
To explore the potential that CDDO-2P-IM may enhance the MM response to proteasome inhibitors via inhibition of inflammasome activity, the effect of CDDO-2P-IM on activation of the NLRP3 complex (as defined by IL-1β production), in the presence or absence of IXZ in primary mouse bone marrow derived macrophages (BMDM) was evaluated. In the experiment, BMDM were primed by lipopolysaccharide (LPS) in the presence or absence of IXZ for 4 hours, followed by a brief ([…]) exposure to CDDO-2P-IM after which inflammasome activation was triggered by ATP.
(§4) The effects of the pyridyl derivatives of CDDO-IM, (specifically, CDDO-2P-Im and CDDO-3P-Im) on NLRP3 inflammasome activation were tested in mouse BMDMs. Cells were first primed with LPS for 4 hours, then pretreated with specific doses of either CDDO-Im, CDDO-2P-IM or CDDO-3P-Im (30-1000 nM) for 15 min before ATP was added for another 45 min. CDDO-Im and its pyridyl derivatives inhibited the amount of caspase-p10 (an auto-processed fragment of caspase-1) released into cell culture supernatants in a dose-dependent manner as measured by Western blot (FIG. 5). […] The effect on caspase-1 activation is specific for the NLRP3 inflammasome as the AIM2 inflammasome activation by poly(dA:dT) was not inhibited by the synthetic CDDO-Im derivatives (data not shown).

Caspase 1 = Caspase 1 activation in LPS-primed BMDM, immunoblotting (caspase-p10); format: cell-based, mouse; conditions: different doses (30-1000 nM) 15 min before ATP (5 mM) 45 min
Procedure: FIG. 5 depicts a Western blot. CDDO-Im, CDDO-2P-Im, and CDDO-3P-Im inhibit Caspase 1 activation. LPS primed BMDM were treated with different doses of CDDO-Im, CDDO-2P-Im, or CDDO-3P-Im for 15 min before ATP (5 mM) was added for 45 min. Medium supernatant (SUP) and cell extracts (Lys) were analyzed by immunoblotting.
as §4

NLRP3 = assay: Mono-sodium urate (MSU)-induced peritonitis; format: in vivo, Mice; conditions: MSU crystals 1 mg/mouse i.p.; lavage four to sixteen hours later
Procedure: FIG. 7 is a bar graph. CDDO-Im, CDDO-2P-Im, and CDDO-3P-Im inhibit mono-sodium urate (MSU)-induced peritonitis. Peritoneal cavity IL-1β levels expressed as mean and SEM (n=6).
Mice received intraperitoneal (i.p.) injections of mono-sodium urate (MSU) crystals (1 mg/mouse) in the presence or absence of CDDO-Im, CDDO-2P-Im, or CDDO-3P-Im. Due to its particulate material, MSU crystals are potent activators of the NOD-like receptor NLRP3. Four to sixteen hours later a peritoneal lavage was conducted to collect supernatant from the peritoneal cavity.

CCL2 = CCL2 expression in LPS-stimulated human macrophages, RT-qPCR; format: cell-based; conditions: 16 hours pretreatment, then 10 ng/ml LPS 24 hours
Procedure: FIG. 10 is a bar graph. CDDO-Me, CDDO-Im, CDDO-2P-Im, and CDDO-3P-Im inhibit expression of CCL2 in human macrophages at picomolar concentrations.
Human peripheral blood monocytes were isolated using CD14 magnetic beads and differentiated with 20 ng/ml M-CSF for with 5 days and pretreated or not with 300 nM CDDO-Me; 500 pM CDDO-Im; 500 pM CDDO-2p-Im; 500 pM CDDO-3p-Im for 16 hours, followed by stimulation with 10 ng/ml LPS for an additional 24 hours. Total RNA was extracted and analyzed by RT-qPCR (Tagman) for cytokine expression.

A2780 = assay: Ovarian cancer cell growth (confluence), IncuCyte ZOOM; format: cell-based, human; conditions: cisplatin dose used in the combination
Description: (§5) FIG. 11 is a set of line graphs. Cisplatin resistant human ovarian cancer cell lines A2780, CP70, OV81, CP10, OVCAR-5 and OVCAR-8 were exposed to CDDO-2P-Im, cisplatin, or a combination of CDDO-2P-Im and cisplatin.
(§6) CDDO-2P-Im suppresses growth of cisplatin-resistant human ovarian cancer cells in vitro. Cisplatin resistant human ovarian cancer cell lines A2780, CP70, OV81, CP10, OVCAR-5 and OVCAR-8 cell were each cultured in a complete medium consisting of RPMI1640, 20% heat-inactivated FBS, 1% penicillin/streptomycin. Cells were cultured in a water jacketed CO2 incubator at 37° C. in a humidified atmosphere consisting of 5% CO2 and 95% air. Continuous live-cell analysis (CLCA) was used as a non-invasive cell monitoring and measurement method based on time-lapse, phase-contrast microscopy and fluorescence imaging, using IncuCyte® ZOOM. Cells were seeded in 96-well plates at densities of either 1×10^4 or 3×10^4 cell/cm^2 followed by addition of a drug dilution series for either CDDO-2P-Im or Cisplatin (P4394, Sigma) dissolved in PBS and diluted in media. […] Reduction in confluence is accompanied by the detachment and death of ovarian cancer cells.

CP10 = assay: as above; format: cell-based, human; conditions: cisplatin dose used in the combination
Description: as §5, §6

CP70 = assay: as above; format: cell-based, human; conditions: cisplatin dose used in the combination
Description: as §5, §6

OV81 = assay: as above; format: cell-based, human; conditions: cisplatin dose used in the combination
Description: as §5, §6

OVCAR-5 = assay: as above; format: cell-based, human; conditions: cisplatin dose used in the combination
Description: as §5, §6

OVCAR-8 = assay: as above; format: cell-based, human; conditions: cisplatin dose used in the combination
Description: as §5, §6

SMILES: CC(C)C[C@H](NC(=O)CNC(=O)c1cc(Cl)ccc1Cl)B(O)O [IXZ, reference compound]
- proliferation (confluence), agent added alone (5T33MM cells): only partially effective
- proliferation (confluence), agent added alone (ARH77 cells): only partially effective
- proliferation (confluence), agent added alone (RPMI8226 cells): only partially effective
- IL-1β release (NLRP3 inflammasome activation), effect of IXZ during LPS priming (NLRP3 inflammasome; BMDM, IXZ and LPS (100 ng/ml), ATP (5 mM) 45 min): potentiation

SMILES: CC1(C)CC[C@]2(C(=O)n3ccnc3)CC[C@]3(C)[C@H](C(=O)C=C4[C@@]5(C)C=C(C#N)C(=O)C(C)(C)[C@@H]5CC[C@]43C)[C@@H]2C1 [CDDO-Im, 1-(2-cyano-3,12-dioxooleana-1,9(11)-dien-28-oyl) imidazole, reference compound]
- IL-1β production by NLRP3 inflammasome activation (NLRP3 inflammasome): inhibit
- Caspase 1 activation (caspase-p10 released into supernatant) (Caspase 1): inhibit
- MSU-induced peritonitis (peritoneal cavity IL-1β levels) (NLRP3): inhibit
- expression of CCL2 (CCL2; 500 pM): inhibit

SMILES: COC(=O)[C@]12CCC(C)(C)C[C@H]1[C@H]1C(=O)C=C3[C@@]4(C)C=C(C#N)C(=O)C(C)(C)[C@@H]4CC[C@@]3(C)[C@]1(C)CC2 [CDDO-Me, reference compound]
- expression of CCL2 (CCL2; 300 nM): inhibit

SMILES: N.N.[Cl][Pt][Cl] [cisplatin, cis-diamminedichloroplatinum(II), reference compound]
- ovarian cancer cell kill, cisplatin alone (A2780): absolutely no effect
- ovarian cancer cell kill, cisplatin alone (CP10): absolutely no effect
- ovarian cancer cell kill, cisplatin alone (CP70): absolutely no effect
- ovarian cancer cell kill, cisplatin alone (OV81): absolutely no effect
- ovarian cancer cell kill, cisplatin alone (OVCAR-5): absolutely no effect
- ovarian cancer cell kill, cisplatin alone (OVCAR-8): absolutely no effect

SMILES: CC1(C)CC[C@]2(C(=O)n3cnc(-c4cccnc4)c3)CC[C@]3(C)[C@H](C(=O)C=C4[C@@]5(C)C=C(C#N)C(=O)C(C)(C)[C@@H]5CC[C@]43C)[C@@H]2C1 [CDDO-3P-Im, 1-[2-Cyano-3,12-dioxooleana-1,9(11)-dien-28-oyl]-4(-pyridin-3-yl)-1H-imidazole]
- IL-1β production by NLRP3 inflammasome activation (NLRP3 inflammasome): inhibit
- Caspase 1 activation (caspase-p10 released into supernatant) (Caspase 1): inhibit
- MSU-induced peritonitis (peritoneal cavity IL-1β levels) (NLRP3): inhibit
- expression of CCL2 (CCL2; 500 pM): inhibit
